{"source": "patent US8399457B2", "about": "“Pharmaceutical compounds” (Neuroscienze Pharmaness S.C. A.R.L., priority 2008, dated 2013)", "key": {"[1]": {"system": "response to the pain in mice", "test": "Hot Plate test (analgesic effect)"}, "[2]": {"system": "response to the pain in mice", "test": "Tail Flick test (analgesic effect)"}, "[3]": {"conditions": "10 mg/kg i.p., 30 min, formula (I) compounds as formates"}, "[4]": {"conditions": "10 mg/kg i.p., 60 min, formula (I) compounds as formates"}, "[5]": {"conditions": "10 mg/kg i.p., 120 min, formula (I) compounds as formates"}, "[6]": {"conditions": "10 mg/kg i.p., 240 min, formula (I) compounds as formates"}, "[7]": {"conditions": "10 mg/kg i.p., 360 min, formula (I) compounds as formates"}, "[8]": {"conditions": "20 mg/kg i.p., 30 min, as formates"}, "[9]": {"conditions": "20 mg/kg i.p., 60 min, as formates"}, "[10]": {"conditions": "20 mg/kg i.p., 120 min, as formates"}, "[11]": {"conditions": "20 mg/kg i.p., 240 min, as formates"}, "[12]": {"conditions": "20 mg/kg i.p., 360 min, as formates"}}}
{"smiles": "CCC(=O)N1CCC2CCC(C1)N2C/C=C(\\C)c1ccccc1", "note": "(stereo not shown) [I-Aa]", "values": [{"measurement": "melting point", "result": "230 to 232", "unit": "°C"}, {"measurement": "MPE %", "setting": "[1]; [3]", "result": "49.5 ± 10.5", "unit": "%"}, {"measurement": "MPE %", "setting": "[1]; [4]", "result": "25.1 ± 6.1", "unit": "%"}, {"measurement": "MPE %", "setting": "[1]; [5]", "result": "6.0 ± 3.0", "unit": "%"}, {"measurement": "MPE %", "setting": "[1]; [6]", "result": "3.2 ± 3.0", "unit": "%"}, {"measurement": "MPE %", "setting": "[1]; [7]", "result": "4.1 ± 1.0", "unit": "%"}, {"measurement": "MPE %", "setting": "[2]; [3]", "result": "65.5 ± 6.5", "unit": "%"}, {"measurement": "MPE %", "setting": "[2]; [4]", "result": "20.1 ± 4.1", "unit": "%"}, {"measurement": "MPE %", "setting": "[2]; [5]", "result": "10.0 ± 1.0", "unit": "%"}, {"measurement": "MPE %", "setting": "[2]; [6]", "result": "3.1 ± 2.0", "unit": "%"}, {"measurement": "MPE %", "setting": "[2]; [7]", "result": "−3.0 ± 0.5", "unit": "%"}]}
{"smiles": "CCC(=O)N1CCC2CCC(C1)N2C/C=C(\\C)c1ccc(Cl)c(Cl)c1", "note": "(stereo not shown) [I-Ab]", "values": [{"measurement": "melting point", "result": "188 to 189", "unit": "°C"}]}
{"smiles": "CCC(=O)N1CCC2CCC(C1)N2CC=C(c1ccccc1)c1ccccc1", "note": "(stereo not shown) [I-Ad]", "values": [{"measurement": "melting point", "result": "176 to 177", "unit": "°C"}]}
{"smiles": "CCC(=O)N1C2CCC1CN(C/C=C(\\C)c1ccccc1)CC2", "note": "(stereo not shown) [I-Ba]", "values": [{"measurement": "melting point", "result": "228 to 230", "unit": "°C"}, {"measurement": "MPE %", "setting": "[1]; [8]", "result": "68.9 ± 7.2", "unit": "%"}, {"measurement": "MPE %", "setting": "[1]; [9]", "result": "50.5 ± 11.3", "unit": "%"}, {"measurement": "MPE %", "setting": "[1]; [10]", "result": "7.0 ± 2.1", "unit": "%"}, {"measurement": "MPE %", "setting": "[1]; [11]", "result": "6.0 ± 2.1", "unit": "%"}, {"measurement": "MPE %", "setting": "[1]; [12]", "result": "−4.0 ± 2.0", "unit": "%"}, {"measurement": "MPE %", "setting": "[2]; [8]", "result": "89.9 ± 7.0", "unit": "%"}, {"measurement": "MPE %", "setting": "[2]; [9]", "result": "88.5 ± 10.3", "unit": "%"}, {"measurement": "MPE %", "setting": "[2]; [10]", "result": "9.0 ± 2.5", "unit": "%"}, {"measurement": "MPE %", "setting": "[2]; [11]", "result": "2.0 ± 1.1", "unit": "%"}, {"measurement": "MPE %", "setting": "[2]; [12]", "result": "−2.0 ± 1.0", "unit": "%"}]}
{"smiles": "CCC(=O)N1C2CCC1CN(C/C=C(\\C)c1ccc(Cl)c(Cl)c1)CC2", "note": "(stereo not shown) [I-Bb]", "values": [{"measurement": "melting point", "result": "186 to 188", "unit": "°C"}]}
{"smiles": "CCC(=O)N1C2CCC1CN(CC=C(c1ccccc1)c1ccccc1)CC2", "note": "(stereo not shown) [I-Bd]", "values": [{"measurement": "melting point", "result": "184 to 186", "unit": "°C"}]}
{"smiles": "CCC(=O)N1CCC2CCCC(C1)N2C/C=C(\\C)c1ccccc1", "note": "(stereo not shown) [I-Ca]", "values": [{"measurement": "melting point", "result": "106 to 108", "unit": "°C"}]}
{"smiles": "CCC(=O)N1CCC2CCCC(C1)N2C/C=C(\\C)c1ccc(Cl)c(Cl)c1", "note": "(stereo not shown) [I-Cb]", "values": [{"measurement": "melting point", "result": "184 to 185", "unit": "°C"}]}
{"smiles": "CCC(=O)N1CCC2CCCC(C1)N2CC=C(c1ccccc1)c1ccccc1", "note": "(stereo not shown) [I-Cc]", "values": [{"measurement": "melting point", "result": "137 to 139", "unit": "°C"}, {"measurement": "MPE %", "setting": "[1]; [8]", "result": "55.2 ± 10.5", "unit": "%"}, {"measurement": "MPE %", "setting": "[1]; [9]", "result": "40.9 ± 7.8", "unit": "%"}, {"measurement": "MPE %", "setting": "[1]; [10]", "result": "24.1 ± 7.3", "unit": "%"}, {"measurement": "MPE %", "setting": "[1]; [11]", "result": "5.0 ± 4.0", "unit": "%"}, {"measurement": "MPE %", "setting": "[1]; [12]", "result": "0.1 ± 1.1", "unit": "%"}, {"measurement": "MPE %", "setting": "[2]; [8]", "result": "80.2 ± 7.5", "unit": "%"}, {"measurement": "MPE %", "setting": "[2]; [9]", "result": "52.9 ± 8.1", "unit": "%"}, {"measurement": "MPE %", "setting": "[2]; [10]", "result": "42.1 ± 8.3", "unit": "%"}, {"measurement": "MPE %", "setting": "[2]; [11]", "result": "14.6 ± 3.0", "unit": "%"}, {"measurement": "MPE %", "setting": "[2]; [12]", "result": "0.0 ± 0.8", "unit": "%"}]}
{"smiles": "CCC(=O)N1C2CCCC1CN(C/C=C(\\C)c1ccccc1)CC2", "note": "(stereo not shown) [I-Da]", "values": [{"measurement": "melting point", "result": "144 to 146", "unit": "°C"}]}
{"smiles": "CCC(=O)N1C2CCCC1CN(C/C=C(\\C)c1ccc(Cl)c(Cl)c1)CC2", "note": "(stereo not shown) [I-Db]", "values": [{"measurement": "melting point", "result": "175 to 176", "unit": "°C"}]}
{"smiles": "CCC(=O)N1C2CCCC1CN(CC=C(c1ccccc1)c1ccccc1)CC2", "note": "(stereo not shown) [I-Dc]", "values": [{"measurement": "melting point", "result": "169 to 170", "unit": "°C"}]}
{"smiles": "CN1CC[C@]23c4c5ccc(O)c4O[C@H]2[C@@H](O)C=C[C@H]3[C@H]1C5", "note": "[Morphine, reference compound]", "values": [{"measurement": "MPE %", "setting": "[2]; [4]", "result": "60.5 ± 6.8", "unit": "%"}, {"measurement": "MPE %", "setting": "[2]; [5]", "result": "39.6 ± 4.0", "unit": "%"}, {"measurement": "MPE %", "setting": "[2]; [6]", "result": "19.1 ± 3.0", "unit": "%"}, {"measurement": "MPE %", "setting": "[2]; [7]", "result": "6.1 ± 1.1", "unit": "%"}]}
